The results in this text go back to patent US11208387B2, “Macrocyclic broad spectrum antibiotics” (Genentech, Inc., priority 2019, dated 2021).

SMILES strings stand for the structures. Values after ≈ are worked out from the molar mass of the structure shown. Read-outs that look alike come from different tables or passages of the source.

Test in all cases: Serum MIC, broth micro-dilution
Common to all, as to type: cell-based
(In general: Broth dilution looks for growth in wells or tubes with falling amounts of substance.)

In experiment [1] the test system is Pseudomonas aeruginosa PA01. The following applies: Pseudomonas aeruginosa, PA01; 50% v/v mouse serum in Mueller Hinton II cation adjusted Broth, 35° C., 22 hours; Table 4; read-out: P. aeruginosa 01 Serum MIC. In short, it runs like this: (§1)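 Plates held at 35 °C for 22 h after adding bacteria to a final OD600 of 0.0005. Medium was a 1:1 mix of mouse serum and cation-adjusted Mueller Hinton II broth. Ten two-fold compound dilutions began at 64, 4, 0.5 or 0.13 μg/mL, per CLSI microdilution.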

Experiment [2] deals with Escherichia coli strain ATCC 25922. Particulars: Escherichia coli, ATCC25922; 50% v/v mouse serum in Mueller Hinton II cation adjusted Broth, 35° C., 22 hours; Table 4; read-out: E. coli 25922 Serum MIC. In short, it runs like this:
as §1

Experiment [3] concerns Klebsiella pneumoniae ATCC 700603. The following applies: Klebsiella pneumoniae, ATCC700603; 50% v/v mouse serum in Mueller Hinton II cation adjusted Broth, 35° C., 22 hours; Table 4; read-out: K pneumoniae 700603 Serum MIC. In short, it runs like this:
as §1

Experiment [4] concerns Acinetobacter baumannii ATCC 17978. The following applies: Acinetobacter baumannii, ATCC17978, 50% v/v mouse serum in Mueller Hinton II cation adjusted Broth, 35° C., 22 hours. A digest of the protocol:
as §1

Where [5] appears, read: Table 4, read-out: A. baumanii 17978 Serum MIC.
Setting [6] is: Table 5, read-out: Acinetobacter baumanii 17978 Serum MIC.

As for `C[C@@H]1NC(=O)[C@@H](N(C)C(=O)[C@H](CCN)NC(=O)c2c(N)cc(-c3ccc(C(C)(C)C)cc3)nc2Cl)c2cc(OC[C@H](O)CN)c(O)c(c2)-c2cc(ccc2OC[C@H](O)CN)C[C@@H](C(=O)O)NC1=O` [Example 51, (8S,11S,14S)-18-hydroxy-11-methyl-14-[methyl-[(2S)-4-amino-2-[[4-amino-6-(4-tert-butylphenyl)-2-chloro-pyridine-3-carbonyl]amino]-butanoyl]amino]-10,13-dioxo-3,17-bis[(2R)-3-amino-2-hydroxy-propoxy]-9,12-diazatricyclo-[13.3.1.12,6]icosa-1(18),2(20),3,5,15(19), 16-hexaene-8-carboxylic acid], the MIC in experiment [1] came out at 8 µM (≈ 7.7 µg/mL); in experiment [2] it was 0.19 µM (≈ 0.183 µg/mL); in experiment [3], 0.13 µM (≈ 0.125 µg/mL); in experiment [4] (setting [5]), 8 µM (≈ 7.7 µg/mL); in experiment [4] (setting [6]), 8 µM (≈ 7.7 µg/mL).
Consider `Cc1nc(-c2c(O)cc3c(c2O)CCC3(C)C)nc(N)c1C(=O)N[C@@H](CNS(N)(=O)=O)C(=O)N(C)[C@@H]1C(=O)N[C@@H](C)C(=O)N[C@H](C(=O)O)Cc2ccc(OC[C@H](O)CN)c(c2)-c2cc1cc(OC[C@H](O)CN)c2O` [Example 52, (8S,11S,14S)-18-hydroxy-11-methyl-14-[methyl-[(2S)-2-[[4-amino-2-(4,6-dihydroxy-1,1-dimethyl-indan-5-yl)-6-methyl-pyrimidine-5-carbonyl]amino]-3-(sulfamoylamino)-propanoyl]amino]-10,13-dioxo-3,17-bis[(2R)-3-amino-2-hydroxy-propoxy]-9,12-diazatricyclo-[13.3.1.12,6]icosa-1(18),2(20),3,5,15(19), 16-hexaene-8-carboxylic acid], for which the MIC was 8 µM (≈ 8.42 µg/mL) in experiment [1]; 0.5 µM (≈ 0.526 µg/mL) in experiment [2]; 1 µM (≈ 1.05 µg/mL) in experiment [3]; 16 µM (≈ 16.8 µg/mL) in experiment [4] (setting [5]); 16 µM (≈ 16.8 µg/mL) in experiment [4] (setting [6]).
`C[C@@H]1NC(=O)[C@@H](N(C)C(=O)[C@H](CNS(N)(=O)=O)NC(=O)c2c(N)nc(-c3ccc(C(C)(C)C)cc3)nc2Cl)c2cc(OC[C@H](O)CN)c(O)c(c2)-c2cc(ccc2OC[C@H](O)CN)C[C@@H](C(=O)O)NC1=O` [Example 53, (8S,11S,14S)-14-[[(2S)-2-[[4-amino-2-(4-tert-butylphenyl)-6-chloro-pyrimidine-5-carbonyl]amino]-3-(sulfamoylamino)-propanoyl]-methyl-amino]-3,17-bis[(2R)-3-amino-2-hydroxy-propoxy]-18-hydroxy-11-methyl-10,13-dioxo-9,12-diazatri-cyclo[13.3.1.12,6]icosa-1(18),2(20),3,5,15(19), 16-hexaene-8-carboxylic acid]: the minimum inhibitory concentration (MIC) stood at 3 µM (≈ 3.09 µg/mL) in experiment [1]; 0.38 µM (≈ 0.391 µg/mL) in experiment [2]; 0.5 µM (≈ 0.514 µg/mL) in experiment [3]; 6 µM (≈ 6.17 µg/mL) in experiment [4] (setting [5]); 6 µM (≈ 6.17 µg/mL) in experiment [4] (setting [6]).
Turning to `Cc1nc(-c2ccc(OCCC(C)(C)C)nc2)nc(N)c1C(=O)N[C@@H](CNS(N)(=O)=O)C(=O)N(C)[C@@H]1C(=O)N[C@@H](C)C(=O)N[C@H](C(=O)O)Cc2ccc(OC[C@H](O)CN)c(c2)-c2cc1cc(OC[C@H](O)CN)c2O` [Example 54, (8S,11S,14S)-14-[[(2S)-2-[[4-amino-2-[6-(3,3-dimethyl-butoxy)-3-pyridyl]-6-methyl-pyrimidine-5-carbonyl]amino]-3-(sulfamoylamino)-propanoyl]-methyl-amino]-3,17-bis[(2R)-3-amino-2-hydroxy-propoxy]-18-hydroxy-11-methyl-10,13-dioxo-9,12-diazatri-cyclo[13.3.1.12,6]icosa-1(18),2(20),3,5,15(19), 16-hexaene-8-carboxylic acid], the minimal inhibitory concentration (MIC) came out at 4 µM (≈ 4.21 µg/mL) in experiment [1]; 0.38 µM (≈ 0.4 µg/mL) in experiment [2]; 0.5 µM (≈ 0.527 µg/mL) in experiment [3]; 8 µM (≈ 8.43 µg/mL) in experiment [4] (setting [5]); 8 µM (≈ 8.43 µg/mL) in experiment [4] (setting [6]).
Consider `C[C@@H]1NC(=O)[C@@H](N(C)C(=O)[C@H](CCN)NC(=O)c2c(N)nc(-c3ccc(C(C)(C)C)cc3)nc2Cl)c2cc(OC[C@H](O)CN)c(O)c(c2)-c2cc(ccc2OC[C@H](O)CN)C[C@@H](C(=O)O)NC1=O` [Example 55, (8S,11S,14S)-18-hydroxy-11-methyl-14-[methyl-[(2S)-4-amino-2-[[4-amino-2-(4-tert-butylphenyl)-6-chloro-pyrimidine-5-carbonyl]amino]-butanoyl]amino]-10,13-dioxo-3,17-bis[(2R)-3-amino-2-hydroxy-propoxy]-9,12-diazatricyclo-[13.3.1.12,6]icosa-1(18),2(20),3,5,15(19), 16-hexaene-8-carboxylic acid], for which the MIC in experiment [1] worked out at 6 µM (≈ 5.78 µg/mL); in experiment [2], 0.19 µM (≈ 0.183 µg/mL); in experiment [3], 0.19 µM (≈ 0.183 µg/mL); in experiment [4] (setting [5]), 6 µM (≈ 5.78 µg/mL); in experiment [4] (setting [6]) it was 6 µM (≈ 5.78 µg/mL).
Consider `CNc1nc(-c2ccc(C(C)(C)C)cc2)nc(C)c1C(=O)N[C@@H](CNS(N)(=O)=O)C(=O)N(C)[C@@H]1C(=O)N[C@@H](C)C(=O)N[C@H](C(=O)O)Cc2ccc(OC[C@H](O)CN)c(c2)-c2cc1cc(OC[C@H](O)CN)c2O` [Example 56, (8S,11S,14S)-3,17-bis[(2R)-3-amino-2-hydroxy-propoxy]-14-[[(2S)-2-[[2-(4-tert-butylphenyl)-4-methyl-6-(methyl-amino)pyrimidine-5-carbonyl]amino]-3-(sulfamoylamino)-propanoyl]-methyl-amino]-18-hydroxy-11-methyl-10,13-dioxo-9,12-diazatri-cyclo[13.3.1.12,6]icosa-1(18),2(20),3,5,15(19), 16-hexaene-8-carboxylic acid], for which the MIC in experiment [1] amounted to 3 µM (≈ 3.07 µg/mL); in experiment [2], 0.25 µM (≈ 0.256 µg/mL); in experiment [3], 0.5 µM (≈ 0.511 µg/mL); in experiment [4] (setting [5]) it was 6 µM (≈ 6.13 µg/mL); in experiment [4] (setting [6]), 6 µM (≈ 6.13 µg/mL).
For the compound `Cc1nc(-c2cc3c(cc2O)C(C)(C)CC3)nc(N)c1C(=O)N[C@@H](CNS(N)(=O)=O)C(=O)N(C)[C@@H]1C(=O)N[C@@H](C)C(=O)N[C@H](C(=O)O)Cc2ccc(OC[C@H](O)CN)c(c2)-c2cc1cc(OC[C@H](O)CN)c2O` [Example 57, (8S,11S,14S)-18-hydroxy-11-methyl-14-[methyl-[(2S)-2-[[4-amino-2-(6-hydroxy-1,1-dimethyl-indan-5-yl)-6-methyl-pyrimidine-5-carbonyl]amino]-3-(sulfamoylamino)-propanoyl]amino]-10,13-dioxo-3,17-bis[(2R)-3-amino-2-hydroxy-propoxy]-9,12-diazatricyclo-[13.3.1.12,6]icosa-1(18),2(20),3,5,15(19), 16-hexaene-8-carboxylic acid], the MIC in experiment [1] turned out to be 8 µM (≈ 8.29 µg/mL); in experiment [2] it was 0.75 µM (≈ 0.777 µg/mL); in experiment [3], 1 µM (≈ 1.04 µg/mL); in experiment [4] (setting [5]), 16 µM (≈ 16.6 µg/mL); in experiment [4] (setting [6]), 16 µM (≈ 16.6 µg/mL).
With `Cc1nc(-c2ccc(C(C)(C)C)cc2CO)nc(N)c1C(=O)N[C@@H](CNS(N)(=O)=O)C(=O)N(C)[C@@H]1C(=O)N[C@@H](C)C(=O)N[C@H](C(=O)O)Cc2ccc(OC[C@H](O)CN)c(c2)-c2cc1cc(OC[C@H](O)CN)c2O` [Example 58, (8S,11S,14S)-14-[[(2S)-2-[[4-amino-2-[4-tert-butyl-2-(hydroxymethyl)-phenyl]-6-methyl-pyrimidine-5-carbonyl]amino]-3-(sulfamoylamino)-propanoyl]-methyl-amino]-3,17-bis[(2R)-3-amino-2-hydroxy-propoxy]-18-hydroxy-11-methyl-10,13-dioxo-9,12-diazatricyclo-[13.3.1.12,6]icosa-1(18),2(20),3,5,15(19), 16-hexaene-8-carboxylic acid], the MIC in experiment [1] is 16 µM (≈ 16.6 µg/mL); in experiment [2], 4 µM (≈ 4.15 µg/mL); in experiment [3], 4 µM (≈ 4.15 µg/mL); in experiment [4] (setting [5]), 48 µM (≈ 49.8 µg/mL); in experiment [4] (setting [6]), 48 µM (≈ 49.8 µg/mL).
On to `Cc1cc(C(C)(C)C)ccc1-c1nc(C)c(C(=O)N[C@@H](CNS(N)(=O)=O)C(=O)N(C)[C@@H]2C(=O)N[C@@H](C)C(=O)N[C@H](C(=O)O)Cc3ccc(OC[C@H](O)CN)c(c3)-c3cc2cc(OC[C@H](O)CN)c3O)c(N)n1` [Example 59, (8S,11S,14S)-14-[[(2S)-2-[[4-amino-2-(4-tert-butyl-2-methyl-phenyl)-6-methyl-pyrimidine-5-carbonyl]amino]-3-(sulfamoylamino)-propanoyl]-methyl-amino]-3,17-bis[(2R)-3-amino-2-hydroxy-propoxy]-18-hydroxy-11-methyl-10,13-dioxo-9,12-diazatricyclo-[13.3.1.12,6]icosa-1(18),2(20),3,5,15(19), 16-hexaene-8-carboxylic acid], for which the MIC in experiment [1] is 4 µM (≈ 4.09 µg/mL); in experiment [2], 1 µM (≈ 1.02 µg/mL); in experiment [3], 1 µM (≈ 1.02 µg/mL); in experiment [4] (setting [5]), 16 µM (≈ 16.4 µg/mL); in experiment [4] (setting [6]), 16 µM (≈ 16.4 µg/mL).
Regarding `Cc1nc(-c2ccc(C(C)(C)C)c(F)c2)nc(N)c1C(=O)N[C@@H](CNS(N)(=O)=O)C(=O)N(C)[C@@H]1C(=O)N[C@@H](C)C(=O)N[C@H](C(=O)O)Cc2ccc(OC[C@H](O)CN)c(c2)-c2cc1cc(OC[C@H](O)CN)c2O` [Example 60, (8S,11S,14S)-14-[[(2S)-2-[[4-amino-2-(4-tert-butyl-3-fluoro-phenyl)-6-methyl-pyrimidine-5-carbonyl]amino]-3-(sulfamoylamino)-propanoyl]-methyl-amino]-3,17-bis[(2R)-3-amino-2-hydroxy-propoxy]-18-hydroxy-11-methyl-10,13-dioxo-9,12-diazatricyclo-[13.3.1.12,6]icosa-1(18),2(20),3,5,15(19), 16-hexaene-8-carboxylic acid], the minimum inhibitory concentration (MIC) in experiment [1] came out at 4 µM (≈ 4.1 µg/mL); in experiment [2] it was 0.5 µM (≈ 0.513 µg/mL); in experiment [3] it was 0.75 µM (≈ 0.77 µg/mL); in experiment [4] (setting [5]) it was 12 µM (≈ 12.3 µg/mL); in experiment [4] (setting [6]) it was 12 µM (≈ 12.3 µg/mL).

What is called MIC is the lowest concentration that inhibits growth of the organism.
